These results are taken from PMC5529423, “ATP-dependent modulation of MgtE in Mg^2+ homeostasis” (Nature Communications, 2017).

Data set [1] deals with T1, TtMgtE (full-length MgtE) (Thermus thermophilus, UniProt Q5SMG8).
T1 construct: full-length, expressed in E. coli C41 (DE3), Ni-NTA and gel filtration in detergent; homodimer; tag not described
T1 sequence (Q5SMG8 1-450): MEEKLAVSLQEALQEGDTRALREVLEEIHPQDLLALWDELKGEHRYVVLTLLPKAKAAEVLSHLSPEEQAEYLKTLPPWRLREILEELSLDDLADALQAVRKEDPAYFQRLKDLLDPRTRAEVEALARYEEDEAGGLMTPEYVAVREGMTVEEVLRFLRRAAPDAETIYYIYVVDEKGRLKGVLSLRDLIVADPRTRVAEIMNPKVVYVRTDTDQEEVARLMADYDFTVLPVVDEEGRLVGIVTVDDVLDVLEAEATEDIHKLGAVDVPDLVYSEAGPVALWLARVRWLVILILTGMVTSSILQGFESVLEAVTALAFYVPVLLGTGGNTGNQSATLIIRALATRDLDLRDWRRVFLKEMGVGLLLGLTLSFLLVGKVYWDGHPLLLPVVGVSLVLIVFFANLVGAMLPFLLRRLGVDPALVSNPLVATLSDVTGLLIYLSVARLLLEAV
As to the kind of experiment: isothermal titration calorimetry. It counts as binding.

The target of data set [2] is T2, TtMgtE (full-length MgtE) (Thermus thermophilus, UniProt Q5SMG8, R187E).
T2 construct: full-length, expressed in E. coli C41 (DE3), Ni-NTA and gel filtration in detergent; homodimer; tag not described
T2 sequence (Q5SMG8 whole entry R187E): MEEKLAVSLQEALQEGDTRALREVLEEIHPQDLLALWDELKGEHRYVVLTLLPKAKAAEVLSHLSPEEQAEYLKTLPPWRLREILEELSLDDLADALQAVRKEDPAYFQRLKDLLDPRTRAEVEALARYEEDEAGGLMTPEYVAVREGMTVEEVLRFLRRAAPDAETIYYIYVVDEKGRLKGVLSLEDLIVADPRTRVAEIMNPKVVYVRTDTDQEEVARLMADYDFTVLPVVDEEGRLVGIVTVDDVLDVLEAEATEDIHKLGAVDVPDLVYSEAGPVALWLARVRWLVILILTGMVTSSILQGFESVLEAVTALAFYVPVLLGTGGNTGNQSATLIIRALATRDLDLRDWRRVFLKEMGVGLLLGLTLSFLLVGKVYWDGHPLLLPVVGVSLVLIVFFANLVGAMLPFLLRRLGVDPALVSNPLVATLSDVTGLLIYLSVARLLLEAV
As to the kind of experiment: isothermal titration calorimetry. The format is binding. Particulars: 20 °C, no added Mg2+, NTM detergent, ligand solution pH 6.5; CBS domain site.

Data set [3] concerns the molecule itself. Put plainly: crystal structure; full-length MgtE with ATP; vapor diffusion over 9% PEG 4000, 0.2 M MgCl2, 0.05 M MES pH 6.5; 3.6 Å.
Data set [4] concerns the molecule itself. Put plainly: crystal structure; cytosolic domain (1-275) with ATP; vapor diffusion over 20-22% PEG 400, 0.2 M MgCl2, 0.1 M HEPES pH 7.4; 3.0 Å.

Usually Kd stands for the free concentration of one partner at which half of the binding sites on the other are occupied at equilibrium, for simple one-to-one binding. The low end stands for tighter binding, the high end for weaker binding. In data set [1], `Nc1ncnc2c1ncn2[C@@H]1O[C@H](COP(=O)(O)OP(=O)(O)O)[C@@H](O)[C@H]1O` [ADP] had a Kd of 763 µM.

In data set [1], `Nc1ncnc2c1ncn2[C@@H]1O[C@H](COP(=O)(O)OP(=O)(O)OP(=O)(O)O)[C@@H](O)[C@H]1O` [ATP] showed a Kd of 415 µM. Further, the isothermal titration calorimetry result in data set [2] is on record as “The injection of ATP into the R187E mutant solution still showed the weaker binding to ATP”.

B1: full-length Thermus thermophilus MgtE (natural protein, UniProt Q5SMG8 1-450, looked up)
chain: MEEKLAVSLQEALQEGDTRALREVLEEIHPQDLLALWDELKGEHRYVVLTLLPKAKAAEVLSHLSPEEQAEYLKTLPPWRLREILEELSLDDLADALQAVRKEDPAYFQRLKDLLDPRTRAEVEALARYEEDEAGGLMTPEYVAVREGMTVEEVLRFLRRAAPDAETIYYIYVVDEKGRLKGVLSLRDLIVADPRTRVAEIMNPKVVYVRTDTDQEEVARLMADYDFTVLPVVDEEGRLVGIVTVDDVLDVLEAEATEDIHKLGAVDVPDLVYSEAGPVALWLARVRWLVILILTGMVTSSILQGFESVLEAVTALAFYVPVLLGTGGNTGNQSATLIIRALATRDLDLRDWRRVFLKEMGVGLLLGLTLSFLLVGKVYWDGHPLLLPVVGVSLVLIVFFANLVGAMLPFLLRRLGVDPALVSNPLVATLSDVTGLLIYLSVARLLLEAV
notes: MgtE Mg2+ channel of Thermus thermophilus, full length; crystallised with ATP and Mg2+; That MgtE is a homodimer is said in the introduction, of the earlier full-length structure; also called TtMgtE; wild type MgtE; source: E. coli C41 (DE3), solubilized with DDM, purified (Ni-NTA, Superdex 200 SEC)
As to B1, the binding result in data set [3] is recorded as “binds”.

B2: cytosolic domain (1-275) of MgtE (domain or fragment, Thermus thermophilus, UniProt Q5SMG8 1-275, looked up)
chain: MEEKLAVSLQEALQEGDTRALREVLEEIHPQDLLALWDELKGEHRYVVLTLLPKAKAAEVLSHLSPEEQAEYLKTLPPWRLREILEELSLDDLADALQAVRKEDPAYFQRLKDLLDPRTRAEVEALARYEEDEAGGLMTPEYVAVREGMTVEEVLRFLRRAAPDAETIYYIYVVDEKGRLKGVLSLRDLIVADPRTRVAEIMNPKVVYVRTDTDQEEVARLMADYDFTVLPVVDEEGRLVGIVTVDDVLDVLEAEATEDIHKLGAVDVPDLVYSE
notes: MgtE Mg2+ channel of Thermus thermophilus, cytosolic domain (N domain and tandem CBS domains), residues 1-275; crystallised with ATP and Mg2+; also called MgtE cytosolic domain; source: E. coli C41 (DE3), purified
As for B2, in data set [4], the binding result is reported as “binds”.
